These results are taken from ChEMBL document CHEMBL1129304, “11-Ketotigogenin cellobioside (pamaqueside): a potent cholesterol absorption inhibitor in the hamster” (J Med Chem, 1996).

Holding throughout (type): ADME, organism-based, Canis lupus familiaris
Data set [1] can be described thus: Pharmacokinetic parameter clearance was determined in fed Beagle dogs after iv administration of 1.5 mg/kg. Further details: dose 1.5 mg/kg, route intravenous. To be noted: dog, in vivo.
The next data set has as its system Canis familiaris. Kind of data set: Pharmacokinetic parameter AUC has been determined in fed Beagle dogs at a dose of 500 mg/kg. Further details: dose 500 mg/kg. To be noted: dog, in vivo.
The nature of data set [2]: Pharmacokinetic parameter Cmax has been determined in fed Beagle dogs at a dose of 500 mg/kg. To be noted: dog, in vivo. Details: dose 500 mg/kg.
A short description of data set [3]: Pharmacokinetic parameter half-life was determined in fed Beagle dogs after iv administration of 1.5 mg/kg. Details: dose 1.5 mg/kg, route intravenous. As to conditions: dog, in vivo.
Data set [4] is described as follows: Pharmacokinetic parameter volume was determined in fed Beagle dogs after iv administration of 1.5 mg/kg. Details: dose 1.5 mg/kg, route intravenous. To be noted: dog, in vivo, read-out: Volume.
Data set [5] can be described thus: Bioavailability in fed Beagle dogs at a dose of 500 mg/kg. To be noted: dog, in vivo.

Molecules are shown by their SMILES.

The term clearance denotes a measure of how efficiently the substance is removed, as volume per time. A low value points to a low capacity for elimination. One may read the AUC as concentration integrated over time. A word on the Cmax: it is the highest concentration seen after dosing. What is called half-life is how long it takes for the measured level to halve. A low value points to fast loss. A word on the bioavailability: it is dose-corrected exposure relative to a reference, in per cent. A higher bioavailability goes with much systemic uptake. `C[C@@H]1CC[C@@]2(OC1)O[C@H]1C[C@H]3[C@@H]4CC[C@H]5C[C@@H](O[C@@H]6O[C@H](CO)[C@@H](O[C@@H]7O[C@H](CO)[C@@H](O)[C@H](O)[C@H]7O)[C@H](O)[C@H]6O)CC[C@]5(C)[C@H]4C(=O)C[C@]3(C)[C@H]1[C@@H]2C` [PAMAQUESIDE] showed a clearance in data set [1] of 1.4 mL/min/kg. Also, the AUC with Canis familiaris is 2150 ng·h/mL. This compound also returned a peak concentration (Cmax) in data set [2] of 110 ng/mL. In data set [3], this compound gave a half-life of 4.5 h. In data set [4], the Vd was 0.5 L/kg. In data set [5], the bioavailability amounted to 0.04%.
